Series [1] deals with Pgp mutants F336A and I340A. The conditions noted are these: cited from earlier work.
Series [2] deals with T1, P-glycoprotein (wild-type mouse Pgp, MDR3) (Mus musculus, UniProt P21447). Nature of the series: in vitro. The conditions noted are these: mouse, pH 7.4. Here is the method:
Overexpression of wild-type mouse Pgp (MDR3) was achieved by using genetically engineered strains of Pichia pastoris with a 6X histidine tag. The cells were cultured in glycerol media, and methanol was used to induce the overexpression of Pgp at the Bioexpression and Fermentation Facility (BFF), University of Georgia, Athens, GA, USA. A repeated cycle of freezing using liquid nitrogen, blending, and thawing was used to lyse the Pgp-expressing P. pastoris cells. The protein was purified using affinity chromatography with nickel-nitrilotriacetic acid (Ni-NTA) resin (Thermo Fisher Scientific, Waltham, MA, USA). DDM was used to solubilize the protein, and the solution was concentrated using Amicon Ultra-15 100 kDa cut-off filters (EMD Millipore, Billerica, MA, USA). […] The purified DDM-solubilized Pgp was aliquoted and stored at −80 °C for future analysis.
Pgp was reconstituted into liposomes as previously described. Briefly, liposomes comprising 80% (w/v) Avanti Escherichia coli total lipid extract and 20% (w/v) cholesterol were dissolved in chloroform to achieve a final concentration of 10 mg mL^−1, and the volume was adjusted to 10 mL. […] The solution was subjected to ten cycles of freeze–thaw using liquid nitrogen and a water bath (67 °C), resulting in the formation of liposomes with varying sizes, and extruded eleven times in a LIPEX extruder (Northern Lipids, Burnaby, BC, Canada) to produce identical-sized liposomes, using a 400 nm cut-off filter.
(§1) Approximately 40 µL of DDM-solubilized Pgp was dialyzed for two hours against HEPES buffer (20 mM HEPES, 100 mM NaCl, 5 mM MgCl2, 2 mM DTT, pH 7.4) to remove any remnants of the detergent, DDM. The dialyzed protein was mixed with 4 mg mL^−1 of the extruded liposomes and incubated on ice for at least one hour to allow Pgp to integrate into the liposomes. To remove any additional detergent and further facilitate Pgp integration into the liposome, the solution was dialyzed for a second time for two hours in HEPES buffer to form proteoliposomes, and the concentration of Pgp reconstituted in liposomes was determined using the Bio-Rad DC Protein assay. Finally, the solution was aliquoted and stored at −80 °C for future use.
The Chifflet method is a colorimetric method that measures the amount of free inorganic phosphate (Pi) through the formation of ammonium molybdate and Pi complex, which produces a strong absorbance at 850 nm. The absorbance was measured on a 96-well plate using a CLARIOstar microplate reader (BMG Labtech, Ortenberg, Germany). […] The final concentrations of the proteoliposome and ATP were maintained at 50 nM and 3.2 mM, respectively. Orthovanadate was used as a control and run in parallel to the samples. Finally, the kinetic curves for ATPase activity were fit to a modified Michaelis-Menten equation (Equation (1)). Igor 6.2 Pro software (Wavemetrics, Tigard, OR, USA) was used for data analysis.(1) V=VmaxS/Km+S+Vbasal where V = Rate of ATP hydrolysis; Vmax = Maximum velocity of ATP hydrolysis; [S] = Substrate concentration; Km = Michaelis–Menten constant; and Vbasal = basal ATPase activity.

The next series relates to Pgp. The following applies: MDCK cell lines overexpressing Pgp; cited from earlier work.
Series [3] concerns the target T1, P-glycoprotein (wild-type mouse Pgp, MDR3). Description: in vitro. The following applies: mouse, pH 7.4. Here is the method: Overexpression of wild-type mouse Pgp (MDR3) was achieved by using genetically engineered strains of Pichia pastoris with a 6X histidine tag. The cells were cultured in glycerol media, and methanol was used to induce the overexpression of Pgp at the Bioexpression and Fermentation Facility (BFF), University of Georgia, Athens, GA, USA. A repeated cycle of freezing using liquid nitrogen, blending, and thawing was used to lyse the Pgp-expressing P. pastoris cells. The protein was purified using affinity chromatography with nickel-nitrilotriacetic acid (Ni-NTA) resin (Thermo Fisher Scientific, Waltham, MA, USA). DDM was used to solubilize the protein, and the solution was concentrated using Amicon Ultra-15 100 kDa cut-off filters (EMD Millipore, Billerica, MA, USA). The concentration of purified protein was measured at 280 nm using a calculated extinction coefficient of 1.28 per mg mL^−1 on a Nanodrop (DeNovix, Wilmington, DE, USA). […] The purified DDM-solubilized Pgp was aliquoted and stored at −80 °C for future analysis.
as §1
The intrinsic tryptophan residues in the protein can be selectively excited and emitted at 295 nm and 330 nm wavelengths, respectively. The binding of the drug to the protein can alter the spatial arrangement encountered by the tryptophan residue(s) and thereby regulate the fluorescence intensity of the protein [52]. […] Proteoliposomes diluted to 1 µM in Chifflet buffer containing 2 mM DTT were titrated against varying concentrations of drugs. The intrinsic protein fluorescence was measured at 330 nm upon excitation at 295 nm using an Olis DM 45 spectrophotometer (Olis Corporation, Bogart, GA, USA). To nullify the effect of Rayleigh bands on the observed spectra, a 10 nm band-pass filter was inserted on the excitation and emission paths of the spectrophotometer. The drug-induced quenching of intrinsic Pgp fluorescence was corrected (Fcorrected) for factors such as dilution, background fluorescence, and inner filter effects using the equation mentioned below (Equation (2)).(2) Fcorrected=F−B10^εexbex+εembemQ/2 where Fcorrected = Drug-induced quenching of intrinsic Pgp fluorescence; F = Emitted intrinsic Pgp fluorescence at 330 nm; [Q] = Concentration of drug; εex and εem = Excitation and emission extinction coefficients, respectively; bex and bem = Path lengths of excitation (0.4 mm) and emission (10 mm) wavelengths, respectively; and B = Background fluorescence measured from drug and solvent.
The resulting quenching curves were fit using a modified Stern-Volmer equation (Equation (3)), as follows:(3) Fcorrected=FOcorrected/1+KsvQ+Funquenched where Fcorrected = The corrected fluorescence; F0(corrected) = Fluorescence recorded in the absence of drug; [Q] = Concentration of drug; Ksv = Stern–Volmer constant; and F(unquenched) = unquenched fluorescence.
This is another data set of the same source.

T1 sequence (P21447 whole entry): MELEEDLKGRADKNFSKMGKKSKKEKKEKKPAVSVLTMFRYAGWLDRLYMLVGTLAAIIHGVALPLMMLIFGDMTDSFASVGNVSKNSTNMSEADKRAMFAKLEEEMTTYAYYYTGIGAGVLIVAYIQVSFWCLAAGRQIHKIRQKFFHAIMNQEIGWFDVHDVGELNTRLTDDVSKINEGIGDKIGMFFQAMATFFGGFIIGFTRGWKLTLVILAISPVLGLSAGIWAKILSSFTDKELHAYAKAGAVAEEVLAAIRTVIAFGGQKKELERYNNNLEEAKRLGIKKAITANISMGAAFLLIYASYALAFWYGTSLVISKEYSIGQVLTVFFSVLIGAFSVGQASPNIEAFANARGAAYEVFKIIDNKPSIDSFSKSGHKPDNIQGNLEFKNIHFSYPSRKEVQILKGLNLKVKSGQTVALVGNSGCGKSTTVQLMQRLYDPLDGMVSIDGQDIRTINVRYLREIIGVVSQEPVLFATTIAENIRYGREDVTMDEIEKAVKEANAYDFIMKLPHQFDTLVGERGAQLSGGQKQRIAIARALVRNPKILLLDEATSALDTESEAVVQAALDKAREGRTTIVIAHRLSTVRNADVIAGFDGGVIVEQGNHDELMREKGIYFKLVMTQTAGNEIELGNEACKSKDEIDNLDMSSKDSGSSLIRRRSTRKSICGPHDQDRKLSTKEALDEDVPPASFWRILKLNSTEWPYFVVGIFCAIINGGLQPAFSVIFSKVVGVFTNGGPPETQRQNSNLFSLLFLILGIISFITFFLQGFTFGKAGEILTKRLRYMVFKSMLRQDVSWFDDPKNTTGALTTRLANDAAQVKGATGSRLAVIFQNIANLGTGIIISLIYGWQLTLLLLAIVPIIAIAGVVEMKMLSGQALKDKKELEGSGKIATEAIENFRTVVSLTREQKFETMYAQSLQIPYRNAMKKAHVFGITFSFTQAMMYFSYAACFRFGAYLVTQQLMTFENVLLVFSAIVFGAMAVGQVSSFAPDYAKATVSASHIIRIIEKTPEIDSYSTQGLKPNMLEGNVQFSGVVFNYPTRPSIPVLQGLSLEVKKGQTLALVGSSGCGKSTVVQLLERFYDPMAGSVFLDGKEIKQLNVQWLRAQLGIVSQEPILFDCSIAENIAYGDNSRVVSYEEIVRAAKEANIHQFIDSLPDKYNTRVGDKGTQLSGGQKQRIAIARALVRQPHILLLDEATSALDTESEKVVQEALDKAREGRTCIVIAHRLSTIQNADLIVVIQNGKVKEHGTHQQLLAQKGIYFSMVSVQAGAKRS

As for `C[C@H]1O[C@@H](O[C@H]2[C@@H](O)C[C@H](O[C@H]3[C@@H](O)C[C@H](O[C@H]4CC[C@@]5(C)[C@H](CC[C@@H]6[C@@H]5C[C@@H](O)[C@]5(C)[C@@H](C7=CC(=O)OC7)CC[C@]65O)C4)O[C@@H]3C)O[C@@H]2C)C[C@H](O)[C@@H]1O` [Digoxin], the “Decrease of digoxin-Pgp interaction for mutants compared to wild-type Pgp” value in series [1] is on record as “two- to four-fold”.
Consider `C[C@]12CC[C@H](O)C[C@H]1CC[C@@H]1[C@@H]2CC[C@]2(C)[C@@H](C3=CC(=O)OC3)CC[C@]12O` [Digitoxigenin, (3β,5β)-3,14-Dihydroxy-card-20(22)-enolide], for which, in series [2], the Km stood at 67.6 ± 19.8 µM. For the same compound, in the series on Pgp, the “Intracellular accumulation in Pgp-overexpressing cells” value is recorded as “no significant difference”.
`C[C@]12CC[C@H](O)C[C@H]1CC[C@@H]1[C@@H]2C[C@@H](O)[C@]2(C)[C@@H](C3=CC(=O)OC3)CC[C@]12O` [Digoxigenin, 3β,12β,14-Trihydroxy-5β,20(22)-cardenolide] gave an equilibrium dissociation constant (Kd) in series [3] of 10.16 ± 0.01 µM.

The values are drawn from publication PMC12386283, “Elucidating the Complex Structural and Molecular Mechanisms Driving P-Glycoprotein-Mediated Transport of Cardiac Glycosides” (International Journal of Molecular Sciences, 2025).
